Laboratory results taken from patent US20240246941A1, “SUBSTITUTED 4-(3-AMINOPROP-1-YL)AMINOQUINOLINE ANALOGS AS MODULATORS OF MELANOMA-ASSOCIATED ANTIGEN 11 UBIQUITIN LIGASE” (ST. JUDE CHILDREN'S RESEARCH HOSPITAL, INC., priority 2020, published 2024).
Where a SMILES comes first, the peptide text is derived from it. [ ]: non-standard residue; d: D form. Phe(3-Me) = Cc1cccc(C[C@H](N)C(=O)O)c1

Target: interaction between GST-MAGEA11 MHD and FAM-PCF11_4 peptide (MAGE-A11:PCF11) (Homo sapiens (Human), UniProt P43364)
Sequence (P43364 218-429): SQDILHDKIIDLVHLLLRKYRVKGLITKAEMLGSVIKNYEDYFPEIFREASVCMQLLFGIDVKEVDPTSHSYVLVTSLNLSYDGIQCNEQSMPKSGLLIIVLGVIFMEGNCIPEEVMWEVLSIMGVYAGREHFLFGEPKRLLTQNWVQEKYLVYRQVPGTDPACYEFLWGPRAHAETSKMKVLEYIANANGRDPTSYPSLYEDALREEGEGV
Test: TR-FRET dose response competition assay for disruption of MAGE-A11:PCF11 binding
Settings: Dose response TR-FRET screening of nine scaffold groups against MAGE-A11:PCF11; read-out: consensus IC50
Method in brief: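 Competition TR-FRET at room temperature in 50 mM Tris pH 7.5, 20 mM MgCl2, 0.1 mg/ml BSA, 1 mM DTT: final 5 nM GST-MAGEA11 MHD, 5 nM Tb-anti-GST, 200 nM FAM-PCF11_4, 90 min. Ratio 520/490 nm converted to % inhibition; IC50 from sigmoidal fit.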

SMILES | IC50
COc1cccc(CNCCCNc2ccnc3cc(Cc4ccc(F)cc4Cl)ccc23)c1O [SJ000311323-1] | 17.6 µM
COc1ccc(CNC(=O)Cn2cnc3cc(-c4ccc(OC)cc4)sc3c2=O)cc1 [SJ000441316-1] | 69.9 µM
O=C1C(Cl)=C(N2CCN(S(=O)(=O)c3ccc(F)cc3)CC2)C(=O)c2ccccc21 [SJ000038882-1] | 69.9 µM
CCOP(=O)(OCC)c1nc(-c2ccc([N+](=O)[O-])cc2)oc1N1CCOCC1 [SJ000092459-1] | 69.9 µM
O=C1c2ccccc2NC(c2ccc(Cl)cc2)N1Cc1ccccc1 (stereo not drawn) [SJ000019547-2] | 69.9 µM
Cc1ccc(S(=O)(=O)c2nc(-c3ccccc3Cl)oc2N2CC(C)OC(C)C2)cc1 (stereo not drawn) [SJ000329066-1] | 13 µM
O=C1c2ccccc2NC(c2ccc(F)c(F)c2)N1CCCN1CCOCC1 (stereo not drawn) [SJ000803757-1] | 58.4 µM
CCn1c2ccccc2c2cc(CN3CCN(Cc4cc(OC)ccc4O)CC3)ccc21 [SJ000111875-2] | 69.9 µM
O=C1C(Cl)=C(N2CCN(S(=O)(=O)c3ccc(Br)cc3)CC2)C(=O)c2ccccc21 [SJ000033014-1] | 69.9 µM
CCCCn1c(=O)[nH]c(=O)c2c1nc(-c1ccc([N+](=O)[O-])cc1)n2CC [SJ000378938-1] | 69.9 µM
CCCn1c(=O)c2nc(-c3ccc(OCC(=O)NCCN)cc3)[nH]c2n(CCC)c1=O [SJ000288288-2] | 69.9 µM
COc1cccc(CNCCCNc2ccnc3cc(Cc4c(Cl)cccc4Cl)ccc23)c1O [SJ000311315-1] | 13.8 µM
CCOc1ccc(C2Nc3ccccc3C(=O)N2CCCN2CCOCC2)cc1 (stereo not drawn) [SJ000803759-1] | 67.7 µM
O=S(=O)(c1ccc(Cl)cc1)c1nc(-c2cccc(Br)c2)oc1N1CCOCC1 [SJ000027481-1] | 9.2 µM
O=C(Cn1cnc2cc(-c3ccc(Cl)cc3)sc2c1=O)NCc1ccccc1F [SJ000455225-1] | 69.9 µM
CCCn1c(=O)[nH]c(=O)c2c1nc(-c1ccc(OC(F)F)cc1)n2CCN1CCOCC1 [SJ000377779-1] | 69.9 µM
CCC(C)N1C(=O)c2ccccc2NC1c1cccc(OC)c1O (stereo not drawn) [SJ000413320-1] | 69.9 µM
CC1CCCC(C)C1NC1=C(Cl)C(=O)c2ccccc2C1=O (stereo not drawn) [SJ000299694-1] | 69.9 µM
CCC(C)(C)NC(=O)Cn1cnc2cc(-c3ccccc3)sc2c1=O [SJ000425613-1] | 69.9 µM
CCCCn1c(=O)[nH]c(=O)c2c1nc(-c1ccc(C)cc1)n2C [SJ000425093-1] | 69.9 µM

Same assay, conditions: PCF11 peptides; read-out: IC50 of PCF11 peptides binding to GST-MAGE-A11 by TR-FRET

SMILES | IC50
CC[C@H](C)[C@H](NC(=O)[C@H](CCC(N)=O)NC(=O)[C@H](Cc1c[nH]cn1)NC(=O)[C@@H](NC(=O)[C@@H](NC(=O)[C@@H](NC(=O)[C@H](CC(C)C)NC(=O)[C@@H](N)Cc1ccccc1)C(C)C)C(C)C)C(C)C)C(=O)N[C@@H](CCCNC(=N)N)C(=O)N[C@@H](CCC(N)=O)C(=O)N[C@@H](CC(C)C)C(=O)N[C@@H](Cc1cccc(C)c1)C(=O)N[C@@H](CCC(N)=O)C(=O)O [3-methyl-phenylanaline] (H-FLVVVHQIRQL[Phe(3-Me)]Q-OH; N-terminus and C-terminus assumed) | 0.0017 µM

Same assay, conditions: Table 5, dose response TR-FRET screening of 59 quinoline compounds against MAGE-A11:PCF11; read-out: TR-FRET IC50

SMILES | IC50
FC(F)(F)Oc1ccc(CN(CCCCNc2ccnc3cc(Cl)ccc23)Cc2ccccc2)cc1 [SJ000520451-1] | > 70 µM
FC(F)(F)c1ccc2c(NCCCNCc3cc4ccccc4s3)ccnc2c1 [SJ000521060-1] | > 70 µM
c1coc(CNCCCNc2ccnc3cc(C4CCCCC4)ccc23)c1 [SJ000311262-1] | > 70 µM

Same assay, conditions: Table 8, representative compounds; read-out: TR-FRET IC50

SMILES | IC50
COc1ccc(-c2ccc3c(NCCCNCc4cc(F)ccc4OC)ccnc3c2)cc1 [SJ000311297] | 69.9 µM
COc1ccc(F)cc1CNCCCNc1ccnc2cc(-c3ccc(F)cc3)ccc12 [SJ000311241] | 38.9 µM
CC(C)Cc1ccc2c(NCCCNCc3cccc4c3OCO4)ccnc2c1 [SJ000311260] | 69.9 µM
Fc1cccc(C(F)(F)F)c1CNCCCNc1ccnc2cc(Cl)ccc12 [SJ000521031] | 69.9 µM
COC1CCCC(F)CC1CNCCCNc1ccnc2cc(CCc3ccccc3)ccc12 (stereo not drawn) [SJ000311256] | 37.1 µM
FC(F)(F)Oc1cccc(CNCCCNc2ccnc3cc(C(F)(F)F)ccc23)c1 [SJ000521045] | 69.9 µM
